# Measurements as given in paper PMC11738990, “A small-molecule TNIK inhibitor targets fibrosis in preclinical and clinical models” (Nature Biotechnology, 2024).
# Read-outs that look alike come from different tables or passages of the source.
# Tested on: A549 cells
# Conditions: for b-catenin/ tubulin normalized / N-Cadherin/GAPDH normalized / Smad2/3/GAPDH normalized / p- Smad2/3/GAPDH normalized / b-catenin/ HDAC2 normalized / b-catenin/ Histone 3 normalized: TGF-β=1; for P65/GAPDH normalized / p-P65/GAPDH normalized: TGF-β+TNF-a=1; for E-Cadherin/GAPDH normalized: DMSO=1
# [1] = 0.3 μM, TGF-β+TNF-a group, Batch 1
# [2] = 0.3 μM, TGF-β+TNF-a group, Batch 2
# [3] = 0.3 μM, TGF-β+TNF-a group, Batch 3
# [4] = 1 μM, TGF-β+TNF-a group, Batch 1
# [5] = 1 μM, TGF-β+TNF-a group, Batch 2
# [6] = 1 μM, TGF-β+TNF-a group, Batch 3
# [7] = 3 μM, TGF-β+TNF-a group, Batch 1
# [8] = 3 μM, TGF-β+TNF-a group, Batch 2
# [9] = 3 μM, TGF-β+TNF-a group, Batch 3
structure (smiles),measurement,setting,value
"CC(C)n1cnc(-c2ccc(F)cc2)c1-c1nc(C(=O)Nc2ccc(N3CCN(C)CC3)cc2)c[nH]1 [INS018_055, 2-[4-(4-fluorophenyl)-1-(prop-2-yl)imidazol-5-yl]-N-[4-(4-methylhexahydropyrazin-1-yl)phenyl]-1H-imidazole-4-carboxamide]",b-catenin/ tubulin normalized,"0.3 μM, Batch 4",1.498
same,P65/GAPDH normalized,"0.3 μM, TGF-β group, Batch 1",0.4013
same,p-P65/GAPDH normalized,"0.3 μM, TGF-β group, Batch 1",0.07454
same,P65/GAPDH normalized,"0.3 μM, TGF-β group, Batch 2",0.8627
same,p-P65/GAPDH normalized,"0.3 μM, TGF-β group, Batch 2",0.05473
same,P65/GAPDH normalized,"0.3 μM, TGF-β group, Batch 3",0.4505
same,p-P65/GAPDH normalized,"0.3 μM, TGF-β group, Batch 3",0.04515
same,P65/GAPDH normalized,[1],0.6352
same,p-P65/GAPDH normalized,[1],0.6859
same,P65/GAPDH normalized,[2],0.8628
same,p-P65/GAPDH normalized,[2],0.7296
same,P65/GAPDH normalized,[3],0.342
same,p-P65/GAPDH normalized,[3],0.3802
same,E-Cadherin/GAPDH normalized,"1 μM, Batch 1",1.5017
same,N-Cadherin/GAPDH normalized,"1 μM, Batch 1",0.1538
same,Smad2/3/GAPDH normalized,"1 μM, Batch 1",1.22
same,p- Smad2/3/GAPDH normalized,"1 μM, Batch 1",0.02816
same,E-Cadherin/GAPDH normalized,"1 μM, Batch 2",1.0948
same,N-Cadherin/GAPDH normalized,"1 μM, Batch 2",0.1737
same,Smad2/3/GAPDH normalized,"1 μM, Batch 2",1.233
same,b-catenin/ HDAC2 normalized,"1 μM, Batch 2",0.9055
same,b-catenin/ Histone 3 normalized,"1 μM, Batch 2",0.7183
same,b-catenin/ tubulin normalized,"1 μM, Batch 2",0.408
same,p- Smad2/3/GAPDH normalized,"1 μM, Batch 2",0.1116
same,E-Cadherin/GAPDH normalized,"1 μM, Batch 3",1.05
same,N-Cadherin/GAPDH normalized,"1 μM, Batch 3",0.09916
same,Smad2/3/GAPDH normalized,"1 μM, Batch 3",1.054
same,b-catenin/ HDAC2 normalized,"1 μM, Batch 3",0.9651
same,b-catenin/ Histone 3 normalized,"1 μM, Batch 3",0.7434
same,b-catenin/ tubulin normalized,"1 μM, Batch 3",0.8806
same,p- Smad2/3/GAPDH normalized,"1 μM, Batch 3",0.1186
same,b-catenin/ HDAC2 normalized,"1 μM, Batch 4",1.855
same,b-catenin/ Histone 3 normalized,"1 μM, Batch 4",0.679
same,b-catenin/ tubulin normalized,"1 μM, Batch 4",1.374
same,P65/GAPDH normalized,"1 μM, TGF-β group, Batch 1",0.3482
same,p-P65/GAPDH normalized,"1 μM, TGF-β group, Batch 1",0.05447
same,P65/GAPDH normalized,"1 μM, TGF-β group, Batch 2",0.9166
same,p-P65/GAPDH normalized,"1 μM, TGF-β group, Batch 2",0.06504
same,P65/GAPDH normalized,"1 μM, TGF-β group, Batch 3",0.4988
same,p-P65/GAPDH normalized,"1 μM, TGF-β group, Batch 3",0.05557
same,P65/GAPDH normalized,[4],0.397
same,p-P65/GAPDH normalized,[4],0.497
same,P65/GAPDH normalized,[5],0.7304
same,p-P65/GAPDH normalized,[5],0.6585
same,P65/GAPDH normalized,[6],0.3751
same,p-P65/GAPDH normalized,[6],0.3266
same,E-Cadherin/GAPDH normalized,"3 μM, Batch 1",1.832
same,N-Cadherin/GAPDH normalized,"3 μM, Batch 1",0.1802
same,Smad2/3/GAPDH normalized,"3 μM, Batch 1",1.447
same,p- Smad2/3/GAPDH normalized,"3 μM, Batch 1",0.01636
same,E-Cadherin/GAPDH normalized,"3 μM, Batch 2",1.252
same,N-Cadherin/GAPDH normalized,"3 μM, Batch 2",0.1613
same,Smad2/3/GAPDH normalized,"3 μM, Batch 2",1.278
same,b-catenin/ HDAC2 normalized,"3 μM, Batch 2",1.403
same,b-catenin/ Histone 3 normalized,"3 μM, Batch 2",0.21
same,b-catenin/ tubulin normalized,"3 μM, Batch 2",0.2321
same,p- Smad2/3/GAPDH normalized,"3 μM, Batch 2",0.09113
same,E-Cadherin/GAPDH normalized,"3 μM, Batch 3",1.09
same,N-Cadherin/GAPDH normalized,"3 μM, Batch 3",0.0841
same,Smad2/3/GAPDH normalized,"3 μM, Batch 3",1.0906
same,b-catenin/ HDAC2 normalized,"3 μM, Batch 3",0.958
same,b-catenin/ Histone 3 normalized,"3 μM, Batch 3",0.258
same,b-catenin/ tubulin normalized,"3 μM, Batch 3",1.067
same,p- Smad2/3/GAPDH normalized,"3 μM, Batch 3",0.09865
same,b-catenin/ HDAC2 normalized,"3 μM, Batch 4",2.079
same,b-catenin/ Histone 3 normalized,"3 μM, Batch 4",0.1136
same,b-catenin/ tubulin normalized,"3 μM, Batch 4",1.238
same,P65/GAPDH normalized,"3 μM, TGF-β group, Batch 1",0.5411
same,p-P65/GAPDH normalized,"3 μM, TGF-β group, Batch 1",0.07665
same,P65/GAPDH normalized,"3 μM, TGF-β group, Batch 2",0.9083
same,p-P65/GAPDH normalized,"3 μM, TGF-β group, Batch 2",0.116
same,P65/GAPDH normalized,"3 μM, TGF-β group, Batch 3",0.5638
same,p-P65/GAPDH normalized,"3 μM, TGF-β group, Batch 3",0.08352
same,P65/GAPDH normalized,[7],0.3919
same,p-P65/GAPDH normalized,[7],0.3522
same,P65/GAPDH normalized,[8],0.5755
same,p-P65/GAPDH normalized,[8],0.6038
same,P65/GAPDH normalized,[9],0.3478
same,p-P65/GAPDH normalized,[9],0.3112
